{"source": "patent US7625883B1", "about": "“Glycerophosphoinositol derivatives as modulators of cytosolic A2 phospholipase” (I.R.B. Istituto di Ricerche Biotechnologiche S.R.L., priority 2000, dated 2009)", "key": {"[1]": {"test_system": "cPLA2", "assay": "release of arachidonic acid induced by the activation of cPLA2 in various cellular systems (overall statement)", "assay_type": "cell-based", "conditions": "all the cellular systems tested", "method": "Evaluation of the effects of the L-α-glycero-phospho-D-mio-inositol autacoid coded example 4a on the release of arachidonic acid induced by cPLA2 in various cellular systems.\nThe cultures are stimulated to release arachidonic acid using various stimuli:\n(§1) cPLA2-dependent mechanism, for example ATP, mastoparan, bombesin;\n(§2) The cells are initially incubated with various concentrations of the compound under examination for 60 minutes or with a predefined concentration of 100 μM for various time intervals (15-180 minutes), washed two times with HBSS (Hank's Balanced Salt Solution, in the presence of Ca2+ and Mg2+ ions) added with 10 mM Hepes and 0.2% BSA—in absence of free fatty acids, pH 7.4 and stimulated with 100 μM ATP in the described buffer for 10 minutes at 37° C. The supernatant was collected in scintillation cuvettes for determination. The results are expressed as a percentage of the total release of [3H]-arachidonic acid."}, "[2]": {"test_system": "Balb/c mice", "assay": "plasma extravasation in the ear pinna of the mouse induced by peptide P6-11 of substance P", "assay_type": "in vivo", "conditions": "P 6-11"}, "[3]": {"test_system": "Swiss 3T3 fibroblasts", "assay": "mastoparan-dependent release of [3H]-arachidonic acid in Swiss 3T3 fibroblasts", "assay_type": "cell-based", "method": "as §1, §2\nPreloaded radioactively labeled cells were pre-incubated with various concentrations of the Example 4a for 60 minutes and then stimulated with 100 μM mastoparan for 10 minutes. The results are expressed as the mean±SE of two points in 3 separate experiments."}, "[4]": {"test_system": "Balb/c mice", "assay": "plasma extravasation in the ear pinna of the mouse induced by substance P", "conditions": "compound 5 mg/kg endovenous"}, "[5]": {"test_system": "Swiss 3T3 fibroblasts", "assay": "bombesin-dependent release of [3H]-arachidonic acid in Swiss 3T3 fibroblasts", "assay_type": "cell-based", "conditions": "then bombesin 10 minutes", "method": "as §1, §2\nPreloaded cells were pre-incubated with various concentrations of the Example 4a for 60 minutes and then stimulated with bombesin for 10 minutes. The results are expressed as the mean±SE of two points in 3 separate experiments."}, "[6]": {"test_system": "FRTL5 cells", "assay": "release of [3H]-arachidonic acid from FRTL5 cells stimulated with ATP", "assay_type": "cell-based, rat", "conditions": "ATP 100 μM 10 minutes", "method": "FRTL5, cell line of epithelial cells from rat thyroid grown in culture. Briefly, the cells were cultured in Coon's F12 medium modified according to Ham and supplemented with 5% bovine serum, 20 mM glutamine and a mixture of six hormones. (6H-thyrotropin, insulin, transferring, cortisol, somatostatin, glicil-L-istidil-L-lysine acetate) at 37° C. in a humidified atmosphere in 5% CO2, 95% air medium changed every 3-4 days. […]\nas §2\nPreloaded cells are incubated with 100 μM of compound of the Example 4a for different time intervals and then stimulated with ATP (100 μM) for 10 minutes. The results are expressed as the mean±SE of two points in 3 separate experiments. The stimulation of control cells was generally 4-5 times the basal value in the corresponding intervals.\n(§3) Preloaded cells were pre-incubated with various concentrations of the Example 4a for 60 minutes and then stimulated with 100 μM ATP for 10 minutes. The results are expressed as the mean±SE of two points in 3 separate experiments."}, "[7]": {"test_system": "Swiss 3T3 fibroblasts", "assay": "release of [3H]-arachidonic acid from Swiss 3T3 fibroblasts stimulated with ATP", "assay_type": "cell-based", "method": "as §1, §2, §3"}, "[8]": {"test_system": "FRTL5 cells", "assay": "release of [3H]-arachidonic acid induced by ionomicin in FRTL5 cells (cPLA2-independent)", "assay_type": "cell-based, rat", "conditions": "for Release of [^3H]-arachidonic acid: then 10 μM ionomicin 30 minutes", "method": "FRTL5, cell line of epithelial cells from rat thyroid grown in culture. Briefly, the cells were cultured in Coon's F12 medium modified according to Ham and supplemented with 5% bovine serum, 20 mM glutamine and a mixture of six hormones. (6H-thyrotropin, insulin, transferring, cortisol, somatostatin, glicil-L-istidil-L-lysine acetate) at 37° C. in a humidified atmosphere in 5% CO2, 95% air medium changed every 3-4 days.\ncPLA2-independent mechanism, for example Ca2+ ionophore, ionomicin.\nas §2\nPreloaded cells were pre-incubated with various concentrations of the Example 4a for 60 minutes and then stimulated with 10 μM ionomicin for 30 minutes. The results are expressed as the mean±SE of two points in 3 separate experiments."}, "[9]": {"assay": "solubility in water", "assay_type": "physicochemical"}, "[10]": {"assay": "solubility in organic solvents", "assay_type": "physicochemical"}, "[11]": {"conditions": "compound 5 mg/kg endovenous 30 minutes before"}, "[12]": {"conditions": "compound 10 mg/Kg endovenous 30 minutes before"}}, "note": "Marks after values point to notes of the source that are not given here."}
{"molecule": "L-α-glycero-phospho-D-mio-inositol zinc salt [Example 3]", "values": [{"measurement": "effect on release of arachidonic acid induced by the activation of the cPLA2 (in words)", "setting": "[1]", "result": "more potent effect"}]}
{"molecule": "L-α-glycero-phospho-D-mio-inositol calcium salt [Example 2]", "values": [{"measurement": "Absorbance (Evan's Blue, 620 nm)", "setting": "[2]; [11]", "result": "0.092 ± 0.021"}, {"measurement": "Absorbance (Evan's Blue, 620 nm)", "setting": "[2]; [12]", "result": "0.079 ± 0.022•"}]}
{"molecule": "Mastoparan [reference compound]", "values": [{"measurement": "Release of [^3H]-arachidonic acid % basal", "setting": "[3]; stimulus alone: 100 μM mastoparan 10 minutes, no test compound", "result": "150 ± 12", "unit": "% basal"}]}
{"molecule": "C[N+](C)(C)CCO.O=P([O-])(OCC(O)CO)OC1C(O)C(O)C(O)C(O)C1O", "note": "[Example 5, L-α-glycero-phospho-D-mio-inositol choline salt]", "values": [{"measurement": "Absorbance (Evan's Blue, 620 nm)", "setting": "[4]", "result": "0.222 ± 0.010"}]}
{"molecule": "O=P([O-])(OCC(O)CO)OC1C(O)C(O)C(O)C(O)C1O.[K+]", "note": "[Example 4a, L-α-glycero-phospho-D-mio-inositol potassium salt]", "values": [{"measurement": "Release of [^3H]-arachidonic acid % basal", "setting": "[5]; 50 μM compound 60 minutes", "result": "120 ± 3", "unit": "% basal"}, {"measurement": "Release of [^3H]-arachidonic acid % basal", "setting": "[5]; 100 μM compound 60 minutes", "result": "90 ± 4", "unit": "% basal"}, {"measurement": "Release of [^3H]-arachidonic acid % inhibition", "setting": "[6]; 0.005 μM compound, 60 minutes preincubation", "result": "10 ± 2", "unit": "% inhibition"}, {"measurement": "Release of [^3H]-arachidonic acid % inhibition", "setting": "[6]; 0.01 μM compound, 60 minutes preincubation", "result": "35 ± 5", "unit": "% inhibition"}, {"measurement": "Release of [^3H]-arachidonic acid % inhibition", "setting": "[6]; 0.1 μM compound, 60 minutes preincubation", "result": "41 ± 2", "unit": "% inhibition"}, {"measurement": "Release of [^3H]-arachidonic acid % inhibition", "setting": "[6]; 1.0 μM compound, 60 minutes preincubation", "result": "52 ± 3", "unit": "% inhibition"}, {"measurement": "Release of [^3H]-arachidonic acid % inhibition", "setting": "[6]; 10 μM compound, 60 minutes preincubation", "result": "60 ± 8", "unit": "% inhibition"}, {"measurement": "Release of [^3H]-arachidonic acid % inhibition", "setting": "[6]; 50 μM compound, 60 minutes preincubation", "result": "70 ± 4", "unit": "% inhibition"}, {"measurement": "Release of [^3H]-arachidonic acid % inhibition", "setting": "[6]; 100 μM compound, 15 minutes of preincubation", "result": "30 ± 4", "unit": "% inhibition"}, {"measurement": "Release of [^3H]-arachidonic acid % inhibition", "setting": "[6]; 100 μM compound, 30 minutes of preincubation", "result": "42 ± 5", "unit": "% inhibition"}, {"measurement": "Release of [^3H]-arachidonic acid % inhibition", "setting": "[6]; 100 μM compound, 60 minutes of preincubation", "result": "70 ± 4", "unit": "% inhibition"}, {"measurement": "Release of [^3H]-arachidonic acid % inhibition", "setting": "[6]; 100 μM compound, 60 minutes preincubation", "result": "92 ± 2", "unit": "% inhibition"}, {"measurement": "Release of [^3H]-arachidonic acid % inhibition", "setting": "[6]; 100 μM compound, 90 minutes of preincubation", "result": "72 ± 5", "unit": "% inhibition"}, {"measurement": "Release of [^3H]-arachidonic acid % inhibition", "setting": "[6]; 100 μM compound, 120 minutes of preincubation", "result": "71 ± 6", "unit": "% inhibition"}, {"measurement": "Release of [^3H]-arachidonic acid % inhibition", "setting": "[6]; 100 μM compound, 180 minutes of preincubation", "result": "92 ± 9", "unit": "% inhibition"}, {"measurement": "effect on release of arachidonic acid induced by the activation of the cPLA2 (in words)", "setting": "[1]", "result": "reduce in a time and concentration dependent manner the release of arachidonic acid"}, {"measurement": "Release of [^3H]-arachidonic acid % basal", "setting": "[7]; 50 μM compound 60 minutes, then 100 μM ATP 10 minutes", "result": "80 ± 9", "unit": "% basal"}, {"measurement": "Release of [^3H]-arachidonic acid % basal", "setting": "[7]; 100 μM compound 60 minutes, then 100 μM ATP 10 minutes", "result": "70 ± 4", "unit": "% basal"}, {"measurement": "Release of [^3H]-arachidonic acid", "setting": "[8]; 50 μM compound 60 minutes", "result": "720 ± 30"}, {"measurement": "Release of [^3H]-arachidonic acid", "setting": "[8]; 100 μM compound 60 minutes", "result": "450 ± 14"}, {"measurement": "effect on release of arachidonic acid induced by stimuli not related to cPLA2 (in words)", "setting": "[8]; calcium ionophore", "result": "does not induce reduction of the release of arachidonic acid"}, {"measurement": "Release of [^3H]-arachidonic acid % basal", "setting": "[3]; 50 μM compound 60 minutes, then 100 μM mastoparan 10 minutes", "result": "90 ± 3", "unit": "% basal"}, {"measurement": "Release of [^3H]-arachidonic acid % basal", "setting": "[3]; 100 μM compound 60 minutes, then 100 μM mastoparan 10 minutes", "result": "80 ± 4", "unit": "% basal"}, {"measurement": "Absorbance x10^−2", "setting": "[2]; compound 0.5 mg/kg endovenous (Table 8)", "result": "54 ± 4* x10^−2"}, {"measurement": "Absorbance x10^−2", "setting": "[2]; compound 1.5 mg/Kg endovenous (Table 8)", "result": "57 ± 7* x10^−2"}, {"measurement": "Absorbance x10^−2", "setting": "[2]; compound 5 mg/Kg endovenous (Table 8)", "result": "34 ± 8* x10^−2"}, {"measurement": "Absorbance (Evan's Blue, 620 nm)", "setting": "[2]; [11]", "result": "0.081 ± 0.027"}]}
{"molecule": "O=P([O-])(OCC(O)CO)OC1C(O)C(O)C(O)C(O)C1O.[Na+]", "note": "[Example 4, L-α-glycerol-phospho-D-mio-inositol sodium salt]", "values": [{"measurement": "effect on release of arachidonic acid induced by the activation of the cPLA2 (in words)", "setting": "[1]", "result": "more potent effect"}]}
{"molecule": "NCCCC[C@H](N)C(=O)O.O=P(O)(OCC(O)CO)OC1C(O)C(O)C(O)C(O)C1O", "note": "[Example 6, L-α-glycero-phospho-D-mio-inositol lysine salt]", "values": [{"measurement": "Absorbance (Evan's Blue, 620 nm)", "setting": "[4]", "result": "0.239 ± 0.015"}, {"measurement": "Absorbance (Evan's Blue, 620 nm)", "setting": "[2]; [11]", "result": "0.131 ± 0.022"}, {"measurement": "Absorbance (Evan's Blue, 620 nm)", "setting": "[2]; [12]", "result": "0.072 ± 0.010•"}]}
{"molecule": "CCCC[N+](CCCC)(CCCC)CCCC.O=P([O-])(OCC(O)CO)OC1C(O)C(O)C(O)C(O)C1O", "note": "[Example 8, L-α-glycero-phospho-D-mio-inositol tetrabutylammonium salt]", "values": [{"measurement": "solubility in water", "setting": "[9]", "result": ">10000", "unit": "µg/mL"}, {"measurement": "solubility in organic solvents", "setting": "[10]; in DMF", "result": "≧10 mg/ml in DMF"}, {"measurement": "solubility in organic solvents", "setting": "[10]; in words", "result": "slightly soluble in organic solvents,"}]}
{"molecule": "Nc1ncnc2c1ncn2[C@@H]1O[C@H](COP(=O)(O)OP(=O)(O)OP(=O)(O)O)[C@@H](O)[C@H]1O", "note": "[ATP, reference compound]", "values": [{"measurement": "Release of [^3H]-arachidonic acid % basal", "setting": "[7]; stimulus alone: 100 μM ATP 10 minutes, no test compound", "result": "149 ± 11", "unit": "% basal"}]}
